Measurements published in patent US10456385B2 (priority 2011, dated 2019).

System: Male ICR mice
Test: Novel Object Recognition Test (NORT) in MK-801-induced amnesia mice
Format: in vivo
Details: Mus musculus, po, unit mg/kg from method, read-out: MED (dose at which NORT relative RI is given)

Row | Structure (SMILES) | minimal effective dose
1 | O=C(NC1CN2CCC1CC2)c1ccc(=O)n(-c2nccs2)c1 (centres unmarked) [Example 1, N-(1-azabicyclo[2.2.2]octan-3-yl)-6-oxo-1-(2-thiazolyl)-3-pyridinecarboxamide] | 0.03 mg/kg
2 | O=C(N[C@H]1CN2CCC1CC2)c1ccc(=O)n(-c2nccs2)c1 [Example 2, N-[(3R)-1-azabicyclo[2.2.2]octan-3-yl)-6-oxo-1-(2-thiazolyl)-3-pyridinecarboxamide] | 0.01 mg/kg
3 | Cc1cnc(-n2cc(C(=O)NC3CN4CCC3CC4)ccc2=O)s1 (centres unmarked) [Example 10, N-(1-azabicyclo[2.2.2]octan-3-yl)-1-(5-methyl-2-thiazolyl)-6-oxo-3-pyridinecarboxamide] | 0.3 mg/kg
4 | Cc1cnc(-n2cc(C(=O)N[C@H]3CN4CCC3CC4)ccc2=O)s1 [Example 11, N-[(3R)-1-azabicyclo[2.2.2]octan-3-yl]-1-(5-methyl-2-thiazolyl)-6-oxo-3-pyridinecarboxamide] | 0.03 mg/kg
5 | CCc1cnc(-n2cc(C(=O)NC3CN4CCC3CC4)ccc2=O)s1 (centres unmarked) [Example 13, N-(1-azabicyclo[2.2.2]octan-3-yl)-1-(5-ethyl-2-thiazolyl)-6-oxo-3-pyridinecarboxamide] | 0.3 mg/kg
6 | CCc1cnc(-n2cc(C(=O)N[C@H]3CN4CCC3CC4)ccc2=O)s1 [Example 14, N-[(3R)-1-azabicyclo[2.2.2]octan-3-yl]-1-(5-ethyl-2-thiazolyl)-6-oxo-3-pyridinecarboxamide] | 0.03 mg/kg
7 | CC(C)c1cnc(-n2cc(C(=O)NC3CN4CCC3CC4)ccc2=O)s1 (centres unmarked) [Example 17, N-(1-azabicyclo[2.2.2]octan-3-yl)-6-oxo-1-(5-propan-2-yl-2-thiazolyl)-3-pyridinecarboxamide] | 0.3 mg/kg
8 | CC(C)(C)c1cnc(-n2cc(C(=O)NC3CN4CCC3CC4)ccc2=O)s1 (centres unmarked) [Example 20, N-(1-azabicyclo[2.2.2]octan-3-yl)-1-(5-tert-butyl-2-thiazolyl)-6-oxo-3-pyridinecarboxamide] | 0.3 mg/kg
9 | O=C(NC1CN2CCC1CC2)c1ccc(=O)n(-c2ncc(C3CCCCC3)s2)c1 (centres unmarked) [Example 24, N-(1-azabicyclo[2.2.2]octan-3-yl)-1-(5-cyclohexyl-2-thiazolyl)-6-oxo-3-pyridinecarboxamide] | 0.03 mg/kg
10 | O=C(NC1CN2CCC1CC2)c1ccc(=O)n(-c2ncc(Cl)s2)c1 (centres unmarked) [Example 26, N-(1-azabicyclo[2.2.2]octan-3-yl)-1-(5-chloro-2-thiazolyl)-6-oxo-3-pyridinecarboxamide] | 0.3 mg/kg
11 | O=C(NC1CN2CCC1CC2)c1ccc(=O)n(-c2nc3ccccc3s2)c1 (centres unmarked) [Example 33, N-(1-azabicyclo[2.2.2]octan-3-yl)-1-(1,3-benzothiazole-2-yl)-6-oxo-3-pyridinecarboxamide] | 0.01 mg/kg
